Molecular target: T1, PD-1/PD-L1 interaction (Homo sapiens, UniProt Q9NZQ7)
T1 construct: expressed in transfected cells; host or cells: CHO cells (aAPC-PD-L1) co-cultured with Jurkat cells overexpressing PD-1 and an NFAT-luciferase reporter
Assay: PD-1/PD-L1 NFAT reporter co-culture assay
Assay type: cell-based
Conditions: Jurkat PD-1 NFAT-luciferase cells co-cultured with aAPC-PD-L1 CHO cells, 6 hrs at 37° C.; read-out: EC50 NFAT Luciferase
Method: PD-1/PD-L1 NEAT Reporter Assay:
Compounds were tested in afunctional co-culture reporter assay in which TCR-mediated NFAT activity is inhibited by the engagement of PD-1 with PD-L1. […] CHO cells expressing surface-bound anti-CD3 antibodies and PD-L1 (artificial antigen presenting cells, aAPC-PD-L1) were first seeded overnight. Jurkat cells overexpressing PD-1 and expressing a luciferase construct under NFAT control are diluted in RPMI assay medium (RPMI 1640 with 2% FBS), mixed with compounds, and immediately seeded on the monolayer of aAPC-PD-L1. The co-culture is then incubated for 6 hrs at 37° C. Luciferase activity is assessed by adding the ONE-Glo reagent and measuring luminescence with a plate reader. EC50 values are calculated from the fit of the dose-response curves to a four-parameter equation (Table 3).

T1 sequence (Q9NZQ7 19-290): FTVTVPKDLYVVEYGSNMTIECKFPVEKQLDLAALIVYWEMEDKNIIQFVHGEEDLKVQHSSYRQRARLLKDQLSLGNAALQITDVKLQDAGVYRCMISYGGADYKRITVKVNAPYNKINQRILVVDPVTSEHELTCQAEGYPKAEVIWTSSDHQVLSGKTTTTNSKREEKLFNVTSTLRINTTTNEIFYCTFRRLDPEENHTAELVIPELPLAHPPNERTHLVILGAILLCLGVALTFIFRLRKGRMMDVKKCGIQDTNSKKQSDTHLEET

Going from COc1nc(OCc2cccc(-c3cccc(COc4nc(OC)c(CNCC(O)C(F)F)cc4Cl)c3C)c2C)c(Cl)cc1CNCC(O)C(F)F (centres unmarked) [Example 176, 3,3′-((((((2,2′-dimethyl-[1,1′-biphenyl]-3,3′-diyl)bis(methylene))bis(oxy))bis(5-chloro-2-methoxypyridine-6,3-diyl))bis(methylene))bis(azanediyl))bis(1,1-difluoropropan-2-ol)] to COc1nc(OCc2cccc(-c3cccc(COc4nc(OC)c(CNC(C)(C)C(=O)O)cc4Cl)c3C)c2C)c(Cl)cc1CN [Example 96, 2-(((6-((3′-(((5-(aminomethyl)-3-chloro-6-methoxypyridin-2-yl)oxy)methyl)-2,2′-dimethyl-[1,1′-biphenyl]-3-yl)methoxy)-5-chloro-2-methoxypyridin-3-yl)methyl)amino)-2-methylpropanoic acid], the EC50 falls from 2880 nM to 912 nM (3.2-fold).

First: Cc1c(COc2cc(OCc3cncc(C#N)c3)c(CNC[C@@H](O)CC(=O)O)cc2Cl)cccc1-c1ccc2c(c1)OC(CNC[C@@H](O)CC(=O)O)CO2 (stereo partly drawn) [Example 108, (3S)-4-((4-((3-(3-((((S)-3-carboxy-2-hydroxypropyl)amino)methyl)-2,3-dihydrobenzo[b] [1,4]dioxin-6-yl)-2-methylbenzyl)oxy)-5-chloro-2-((5-cyanopyridin-3-yl)methoxy)benzyl)amino)-3-hydroxybutanoic acid]
Second: Cc1c(COc2cc(OCc3cncc(C#N)c3)c(CN[C@@H](C)C(=O)O)cc2Cl)cccc1-c1cccc(-c2ccc(OCCN[C@@H](C)C(=O)O)c(C(F)(F)F)c2)c1C [Example 95, (4-((4″-(2-(((S)-1-carboxyethyl)amino)ethoxy)-2,2′-dimethyl-3″-(trifluoromethyl)-[1,1′:3′,1″-terphenyl]-3-yl)methoxy)-5-chloro-2-((5-cyanopyridin-3-yl)methoxy)benzyl)-L-alanine]
The EC50 of the first is 22-fold higher: 13900 nM for the first, 639 nM for the second. The second is the more potent here.

C[C@@](CO)(NCc1cc(Br)c(OCc2cccc(-c3cccc(COc4nc(OCc5cncc(C#N)c5)c(CN[C@@](C)(CO)C(=O)O)cc4Br)c3Cl)c2Cl)nc1OCc1cncc(C#N)c1)C(=O)O [Example 197, (2S,2′S)-2,2′-((((((2,2′-Dichloro-[1,1′-biphenyl]-3,3′-diyl)bis(methylene))bis(oxy))bis(5-bromo-2-((5-cyanopyridin-3-yl)methoxy)pyridine-6,3-diyl))bis(methylene))bis(azanediyl))bis(3-hydroxy-2-methylpropanoic acid)] and COc1nc(OCc2cccc(-c3cccc(COc4nc(OC)c(CN[C@](C)(CO)C(=O)O)cc4Br)c3C)c2C)c(Br)cc1CN[C@](C)(CO)C(=O)O [Example 46, (2R,2′R)-2,2′-((((((2,2′-dimethyl-[1,1′-biphenyl]-3,3′-diyl)bis(methylene))bis(oxy))bis(5-bromo-2-methoxypyridine-6,3-diyl))bis(methylene))bis(azanediyl))bis(3-hydroxy-2-methylpropanoic acid)] are within 1.5-fold of each other in EC50: 98 nM for the first, 87 nM for the second.

Compared with COc1nc(OCc2cccc(-c3cccc(COc4nc(OC)c(CN[C@H](C(=O)O)c5ccccc5)cc4Cl)c3C)c2C)c(Cl)cc1CN[C@H](C(=O)O)c1ccccc1 [Example 86, (2S,2′S)-2,2′-((((((2,2′-dimethyl-[1,1′-biphenyl]-3,3′-diyl)bis(methylene))bis(oxy))bis(5-chloro-2-methoxypyridine-6,3-diyl))bis(methylene))bis(azanediyl))bis(2-phenylacetic acid)], COc1nc(OCc2cccc(-c3cccc(COc4nc(OC)c(CN[C@@H]5CCC[C@@H]5C(=O)O)cc4Cl)c3C)c2C)c(Cl)cc1CN[C@@H]1CCC[C@@H]1C(=O)O [Example 79, (1S,1′S,2R,2′R)-2,2′-((((((2,2′-dimethyl-[1,1′-biphenyl]-3,3′-diyl)bis(methylene))bis(oxy))bis(5-chloro-2-methoxypyridine-6,3-diyl))bis(methylene))bis(azanediyl))bis(cyclopentane-1-carboxylicacid)] is lower in EC50: no less than 50000 nM for the first, 381 nM for the second. The second is the more potent here.

First: Cc1c(-c2ccc(OCCNC[C@H](O)CC(=O)O)cc2)cccc1-c1cccc(-c2ccc(OCCNC[C@H](O)CC(=O)O)cc2)c1C [Example 107, (3R,3′R)-4,4′-((((2′,2″-dimethyl-[1,1′:3′,1″:3″,1′″-quaterphenyl]-4,4′″-diyl)bis(oxy))bis(ethane-2,1-diyl))bis(azanediyl))bis(3-hydroxybutanoic acid)]
Second: Cc1c(COc2nc(OCc3cc(C#N)cc(C#N)c3)c(CNC[C@@H](O)CC(=O)O)cc2Cl)cccc1-c1cccc(-c2ccc(OCCNCCO)cc2)c1C [Example 472]
The EC50 of the first is 690-fold higher: 35000 nM for the first, 51 nM for the second.

First: COc1nc(OCc2cccc(-c3cccc(COc4nc(OC)c(CN5CC(O)C5)cc4Br)c3C)c2C)c(Br)cc1CN1CC(O)C1 [Example 255, 1,1′-(((((2,2′-dimethyl-[1,1′-biphenyl]-3,3′-diyl)bis(methylene))bis(oxy))bis(5-bromo-2-methoxypyridine-6,3-diyl))bis(methylene))bis(azetidin-3-ol)]
Second: COc1nc(OCc2cccc(-c3cccc(COc4nc(OC)c(CN5CC(NC(C)=O)C5)cc4Cl)c3C)c2C)c(Cl)cc1CN1CC(NC(C)=O)C1 [Example 37, N,N′-((((((2,2′-dimethyl-[1,1′-biphenyl]-3,3′-diyl)bis(methylene))bis(oxy))bis(5-chloro-2-methoxypyridine-6,3-diyl))bis(methylene))bis(azetidine-1,3-diyl))diacetamide]
The EC50 of the first is higher: no less than 50000 nM for the first, 894 nM for the second. The second is the more potent here.

Compared with Cc1c(OC(F)(F)c2ccc(CNCC(=O)O)cc2)cccc1-c1cccc(OC(F)(F)c2ccc(CNCC(=O)O)cc2)c1C [Example 278, 2,2′-((((((2,2′-dimethyl-[1,1′-biphenyl]-3,3′-diyl)bis(oxy))bis(difluoromethylene))bis(4,1-phenylene))bis(methylene))bis(azanediyl))diacetic acid], COc1nc(OCc2cccc(-c3cccc(COc4ccc(CNC[C@@H](O)CC(=O)O)c(OC)n4)c3F)c2C)ccc1CNC[C@@H](O)CC(=O)O [Example 285, (3S,3′S)-4,4′-((((((2-fluoro-2′-methyl-[1,1′-biphenyl]-3,3′-diyl)bis(methylene))bis(oxy))bis(2-methoxypyridine-6,3-diyl))bis(methylene))bis(azanediyl))bis(3-hydroxybutanoic acid)] is lower in EC50: no less than 50000 nM for the first, 9690 nM for the second. The second is the more potent here.

Compared with CCOC(=O)C[C@H](O)CNCc1cc(C2CC2)c(OCc2cccc(-c3cccc(COc4nc(OC)c(CNC[C@@H](O)CC(=O)O)cc4C4CC4)c3C)c2C)nc1OC [Example 56, (S)-4-(((5-cyclopropyl-6-((3′-(((3-cyclopropyl-5-((((S)-4-ethoxy-2-hydroxy-4-oxobutyl)amino)methyl)-6-methoxypyridin-2-yl)oxy)methyl)-2,2′-dimethyl-[1,1′-biphenyl]-3-yl)methoxy)-2-methoxypyridin-3-yl)methyl)amino)-3-hydroxybutanoic acid], COc1nc(OCc2cccc(-c3cccc(COc4nc(OC)c(CN[C@](C)(CO)C(=O)O)cc4C4CC4)c3C)c2C)c(C2CC2)cc1CN[C@](C)(CO)C(=O)O [Example 64, (2R,2′R)-2,2′-((((((2,2′-dimethyl-[1,1′-biphenyl]-3,3′-diyl)bis(methylene))bis(oxy))bis(5-cyclopropyl-2-methoxypyridine-6,3-diyl))bis(methylene))bis(azanediyl))bis(3-hydroxy-2-methylpropanoic acid)] is lower in EC50: no less than 50000 nM for the first, 9780 nM for the second.

First: Cc1c(COc2nc(OCc3ccc(F)c(C#N)c3)c(CNC[C@@H](O)CC(=O)O)cc2Br)cccc1-c1cccc(COc2nc(OCc3ccc(F)c(C#N)c3)c(CNC[C@@H](O)CC(=O)O)cc2Br)c1C [Example 140, (3S,3′S)-4,4′-((((((2,2′-dimethyl-[1,1′-biphenyl]-3,3′-diyl)bis(methylene))bis(oxy))bis(5-bromo-2-((3-cyano-4-fluorobenzyl)oxy)pyridine-6,3-diyl))bis(methylene))bis(azanediyl))bis(3-hydroxybutanoic acid)]
Second: Cc1c(COc2nc(OCc3cc(C#N)cc(C#N)c3)c(CNCC(=O)O)cc2Cl)cccc1-c1cccc(COc2nc(OCc3cc(C#N)cc(C#N)c3)c(CNCC(=O)O)cc2Cl)c1C [Example 125, 2,2′-((((((2,2′-dimethyl-[1,1′-biphenyl]-3,3′-diyl)bis(methylene))bis(oxy))bis(5-chloro-2-((3,5-dicyanobenzyl)oxy)pyridine-6,3-diyl))bis(methylene))bis(azanediyl))diacetic acid]
The EC50 of the first is 1.5-fold higher: 239 nM for the first, 158 nM for the second.

Compared with Cc1c(COc2cc(OCc3cncc(C#N)c3)c(CN3CC[C@H]3CO)cc2Br)cccc1-c1cccc(COc2cc(OCc3cncc(C#N)c3)c(CN3CC[C@H]3CO)cc2Br)c1C [Example 260, 5,5′-((((((2,2′-dimethyl-[1,1′-biphenyl]-3,3′-diyl)bis(methylene))bis(oxy))bis(4-bromo-6-(((S)-2-(hydroxymethyl)azetidin-1-yl)methyl)-3,1-phenylene))bis(oxy))bis(methylene))dinicotinonitrile], COc1nc(OCc2cccc(-c3cccc(COc4nc(OC)c(CNCc5nnc(C)o5)cc4Cl)c3C)c2C)c(Cl)cc1CNCc1nnc(C)o1 [Example 170, 1,1′-((((2,2′-dimethyl-[1,1′-biphenyl]-3,3′-diyl)bis(methylene))bis(oxy))bis(5-chloro-2-methoxypyridine-6,3-diyl))bis(N-((5-methyl-1,3,4-oxadiazol-2-yl)methyl)methanamine)] is higher in EC50: 463 nM for the first, no less than 50000 nM for the second. The first is the more potent here.

From patent US12590062B2, “PD-1/PD-L1 inhibitors” (Gilead Sciences, Inc., priority 2017, dated 2026)
